The data set relates to GH3-TRE-Luc cell line. The following applies: read-out: AC50 (uM) modified / 1000, viability, 1 nM T3 present, 24 h.

Where a name gives a salt, the structure may show the parent alone. Read-outs that look alike come from different tables or passages of the source. Starred links: 1 amine or outer side, 2 acyl side, 3 side chain; linkers in the order of their positions; H or OH if unused. Positions of bridges follow the written chain, without caps; N, C: chain ends. Non-standard residues stand in square brackets, D forms with d. Residues, ends and D or L forms follow the SMILES beside them. Chains are numbered I, II in the order given. Actinocin(9to1) = Cc1c2oc3c(C)ccc(C(=O)[*:1])c3nc-2c(C(=O)[*:2])c(N)c1=O; NMeV = CN[C@H](C(=O)O)C(C)C; Sar = CNCC(=O)O

This note sets out measurements from paper PMC6792352, “Limited Chemical Structural Diversity Found to Modulate Thyroid Hormone Receptor in the Tox21 Chemical Library” (Environmental Health Perspectives, 2019).

In the case of `Cc1c(O)cccc1C(=O)N[C@@H](CSc1ccccc1)[C@H](O)CN1C[C@H]2CCCC[C@H]2C[C@H]1C(=O)NC(C)(C)C` [Nelfinavir mesylate], the CC50 by setting is: (Tox21_110001=Tox21_111021) 3.68 µM; (Tox21_110001=Tox21_200921) 1.83 µM.
For `CC/C(=C(\c1ccccc1)c1ccc(OCCN(C)C)cc1)c1ccccc1` [Tamoxifen], the CC50 runs as follows: (Tox21_110001=Tox21_201243) 13.9 µM; (Tox21_110001=Tox21_300539) 8.55 µM.
With `O=[N+]([O-])c1ccc(O)cc1` [Sodium 4-nitrophenolate], the CC50 (Tox21_110001=Tox21_300477) is 44.7 µM.
Turning to `CC(C)(C)c1ccc(C(O)CCCN2CCC(C(O)(c3ccccc3)c3ccccc3)CC2)cc1` (stereo not shown) [Terfenadine], for the setting “Tox21_110001=Tox21_110296”, the CC50 came out at 5.45 µM.
Take `CC(=O)N1CCN(c2ccc(OC[C@@H]3CO[C@@](Cn4ccnc4)(c4ccc(Cl)cc4Cl)O3)cc2)CC1` (racemic) [Ketoconazole]: the CC50 (Tox21_110001=Tox21_300267) was 23.7 µM.
As to `Oc1cccc2cccnc12` [8-Hydroxyquinoline], the CC50 is, setting by setting: (Tox21_110001=Tox21_113083) 3 µM; (Tox21_110001=Tox21_202986) 3.28 µM; (Tox21_110001=Tox21_400006) 3.8 µM.
In the case of `c1cnc2c(c1)ccc1cccnc12` [1,10-Phenanthroline], the CC50 (Tox21_110001=Tox21_201998) was determined as 46.4 µM and the CC50 (Tox21_110001=Tox21_303111) worked out at 66.2 µM.
`CCCCCCCC[N+](C)(CCCCCCCC)CCCCCCCC` [Methyltrioctylammonium chloride]: where the note is “Tox21_110001=Tox21_302198”, the CC50 amounted to 5.04 µM.
As to `CCCCCCCCCCCCCCCCn1cc[n+](C)c1` [1-Hexadecyl-3-methylimidazolium chloride], the CC50 (Tox21_110001=Tox21_200600) came out at 21.4 µM.
Regarding `CCCCCCCCCCn1cc[n+](C)c1` [1-Decyl-3-methylimidazolium trifluoromethanesulfonate], the CC50 (Tox21_110001=Tox21_200593) stood at 6.68 µM.
With `CC(C)(C)c1cc(O)ccc1O` [tert-Butylhydroquinone], the CC50 runs as follows: (Tox21_110001=Tox21_110007) 7.35 µM; (Tox21_110001=Tox21_202309) 64.9 µM; (Tox21_110001=Tox21_300081) 37.7 µM.
Take `Cc1c2oc3c(C)ccc(C(=O)N[C@@H]4C(=O)N[C@H](C(C)C)C(=O)N5CCC[C@H]5C(=O)N(C)CC(=O)N(C)[C@@H](C(C)C)C(=O)O[C@@H]4C)c3nc-2c(C(=O)N[C@@H]2C(=O)N[C@H](C(C)C)C(=O)N3CCC[C@H]3C(=O)N(C)CC(=O)N(C)[C@@H](C(C)C)C(=O)O[C@@H]2C)c(N)c1=O` [Actinomycin D] (I: T[dV]P[Sar][NMeV] / II: T[dV]P[Sar][NMeV]; ester I:1-I:C, II:1-II:C; linker I:N-II:N via Actinocin(9to1)): the CC50 by setting is: (Tox21_110001=Tox21_111997) 0.00788 µM; (Tox21_110001=Tox21_202482) 0.000903 µM.
Regarding `N#Cc1c(Cl)c(Cl)c(Cl)c(C#N)c1Cl` [Chlorothalonil], the CC50 was determined as 0.523 µM (Tox21_110001=Tox21_201687) and 0.188 µM (Tox21_110001=Tox21_300862).
Consider `C#C[C@]1(O)CC[C@H]2[C@@H]3CCC4=CCCC[C@@H]4[C@H]3CC[C@@]21C` [Lynestrenol], for which the CC50 by setting is: (Tox21_110001=Tox21_110319) 17.1 µM; (Tox21_110001=Tox21_301969) 46.9 µM.
On to `C=C[C@H]1C[N@@]2CC[C@H]1C[C@H]2[C@H](O)c1ccnc2ccc(OC)cc12` [Quinine hydrochloride dihydrate], for which the CC50 (Tox21_110001=Tox21_303565) was found to be 50.6 µM.
As to `CO[C@@H]1[C@H](OC(=O)/C=C/C=C/C=C/C=C/C(=O)O)CC[C@]2(CO2)[C@H]1[C@@]1(C)O[C@@H]1CC=C(C)C` [Fumagillin], the CC50 (Tox21_110001=Tox21_112066) was determined as 42.9 µM.
`COc1ccc(C(=O)/C(Br)=C\C(=O)O)cc1` [Bromebric acid]: where the note is “Tox21_110001=Tox21_111900”, the CC50 turned out to be 31.6 µM.
With `c1cnc2c(c1)ccc1cccnc12` [1,10-Phenanthroline hydrochloride hydrate], the CC50 (Tox21_110001=Tox21_301286) came to 7.25 µM.
Regarding `Nc1ncn([C@@H]2O[C@H](CO)[C@@H](O)[C@H]2O)c(=O)n1` [5-Azacytidine], the CC50 by setting is: (Tox21_110001=Tox21_111032) 5.77 µM; (Tox21_110001=Tox21_302985) 19.3 µM.
Consider `CCN(CC)C(=S)S` [Sodium diethyldithiocarbamate], for which, for the setting “Tox21_110001=Tox21_112412”, the CC50 was found to be 1.18 µM.
Consider `c1cc(C(c2ccc(OCC3CO3)cc2)C(c2ccc(OCC3CO3)cc2)c2ccc(OCC3CO3)cc2)ccc1OCC1CO1` (stereo not shown) [1,1,2,2-(4,4',4'',4'''-Tetraglycidyloxyphenyl)ethane], for which the CC50 (Tox21_110001=Tox21_202150) was 25.2 µM.
Consider `NCCc1ccc(O)c(O)c1` [Dopamine], for which the CC50 (Tox21_110001=Tox21_110167) was found to be 37 µM.
As for `CC[C@H]1CN2CCc3cc(OC)c(OC)cc3[C@@H]2C[C@@H]1C[C@H]1NCCc2cc(OC)c(OC)cc21` [Emetine], the CC50 (Tox21_110001=Tox21_110901) was 0.0872 µM.
With `CCCCCCCCCC[N+](C)(C)CCCCCCCCCC` [Didecyldimethylammonium bromide], under “Tox21_110001=Tox21_112302”, the CC50 was 6.15 µM.
As to `COc1cc([C@@H]2c3cc4c(cc3[C@H](O)[C@H]3COC(=O)[C@H]23)OCO4)cc(OC)c1OC` [Podofilox], the CC50 (Tox21_110001=Tox21_202922) worked out at 0.0227 µM.
For the compound `Nc1ccn([C@@H]2O[C@H](CO)[C@@H](O)[C@@H]2O)c(=O)n1` [Cytarabine hydrochloride], the CC50 (Tox21_110001=Tox21_300488) was 0.11 µM.
Take `CN(C)c1ccc(C(=O)c2ccc(N(C)C)cc2)cc1` [Michler's ketone]: the CC50 (Tox21_110001=Tox21_202416) was found to be 2.74 µM.
Regarding `O=c1c(-c2ccc(O)cc2)coc2cc(O)cc(O)c12` [Genistein], the CC50 is 24.6 µM (Tox21_110001=Tox21_110161), 38.3 µM (Tox21_110001=Tox21_201428) and 57.7 µM (Tox21_110001=Tox21_300585).
Take `CC/C(=C(\c1ccc(O)cc1)c1ccc(OCCN(C)C)cc1)c1ccccc1` [4-Hydroxytamoxifen]: the CC50 (Tox21_110001=Tox21_303657) came to 2.62 µM.
For the compound `O=c1c(O)c(-c2ccc(O)c(O)c2)oc2cc(O)cc(O)c12` [Quercetin], the CC50 reads like this: (Tox21_110001=Tox21_202308) 40.5 µM; (Tox21_110001=Tox21_300285) 77.2 µM.
On to `CCCC[n+]1ccc(C)cc1` [1-Butyl-4-methylpyridinium chloride], for which the CC50 (Tox21_110001=Tox21_202685) was determined as 39.2 µM.
For `CN(C)CCCN1c2ccccc2Sc2ccc(Cl)cc21` [Chlorpromazine], the CC50 (Tox21_110001=Tox21_110120) is 8.03 µM.
